Test results: patent US12692232B2, “Indole carboxamide compound, preparation therefor and use thereof” (NANJING RUISHUNING MEDICAL TECHNOLOGY CO., LTD., priority 2021, dated 2026)

Columns and labels:
[1] = system: lipopolysaccharide (LPS)-induced mouse model of sepsis; test: LPS-induced mouse model of sepsis, cardiopulmonary injury; type: in vivo; conditions: 4 hours after LPS 40 mg/kg; for LVFS: model 15.2 ± 2.8; for LVEF: model 34.3 ± 2.9; for lung coefficient: LPS model 7.24%±0.21%
Method: A lipopolysaccharide (LPS)-induced mouse model of sepsis was used to determine the preventive and therapeutic effect of the compounds of the present invention (as exemplified by compound 1-1 obtained in Example 1) on cardiopulmonary injury caused by sepsis. The method was as follows:
Grouping of animals: 50 male C57BL/6J mice aged 6-8 weeks. The mice were randomly divided into 5 groups of 10 mice each, namely, i) a solvent control group: each animal was administered 0.9% saline; ii) a sepsis model group (LPS group): each animal was injected intraperitoneally with LPS at a dose of 40 mg/kg; iii) a treatment group of medium-dose compound 1-1 of Example (LPS+25 mg/kg of compound 1-1 obtained in Example 1): each animal was administered compound 1-1 by gavage at a dose of 25 mg/kg, followed by intraperitoneal injection of LPS at a dose of 40 mg/kg 30 minutes later; iv) a treatment group of high-dose compound 1-1 of Example 1 (LPS+50 mg/kg of compound 1-1 group obtained in Example 1): each animal was administered compound 1-1 by gavage at a dose of 50 mg/kg, followed by intraperitoneal injection of LPS at a dose of 40 mg/kg 30 minutes later; v) a treatment group of medium-dose indole analogue 3-[(1-methyl-1H-indole-2-carbonyl)amino]propionic acid disclosed in CN2019107285315 (LPS+25 mg/kg of indole analogue 3-[(1-methyl-1H-indole-2-carbonyl)amino]propionic acid disclosed in CN2019107285315): each animal was administered the indole analogue by gavage at a dose of 25 mg/kg, followed by intraperitoneal injection of LPS at a dose of 40 mg/kg 30 minutes later. 4 hours after LPS stimulation, follow-up examinations were performed in each group.
Assessment of cardiac function in mice: 4 animals from each group were used for this assay. Isoflurane was used to maintain proper anesthesia and spontaneous breathing in the mice. The mice were placed in the supine position on a constant temperature pad at 37° C., and the extremities of the mice were connected to four electrodes with conductive paste and fixed on the ultrasonic operating table. The probe was coated with ultrasound coupling agent, and placed in the lower middle part of the left sternum of the mice, and the short-axis M-mode echocardiographic images of the left ventricle adjacent to the sternum were acquired in real time. The dynamic images of 10 consecutive cardiac cycles were acquired using M-mode echocardiography, and the images were stored and analyzed offline. Left ventricular ejection fraction (LVEF) and left ventricular fraction shortening (LVFS) were calculated from left ventricular end diastolic diameter (LVEDD) and left ventricular end systolic diameter (LVESD), respectively, using the formulae: LVEF=(LVEDD^3−LVESD^3)/LVEDD^3×100% and LVFS=(LVEDD−LVESD)/LVEDD×100%.
Determination of lung coefficient: after weighting, the mice were anesthetized with pentobarbital sodium injection, and the whole lung was removed from the thorax, and the tissue around the lung was removed. Surface moisture and blood stains were wiped dry with filter paper, and the wet weight of the lung was weighed. Lung coefficient=lung wet weight […]/mouse body weight (g)×100%.
Histopathological observations: after the mice were anaesthetized with pentobarbital sodium injection, the lungs and ventricles were removed by thoracotomy and fixed in 10% neutral formaldehyde (pH=7.4) for 2 days. Routine paraffin embedding, serial sectioning, H&E staining, neutral balsam sealing and microscopic observation were performed.

[2] = system: mouse model of focal segmental glomerulosclerosis; test: Mouse model of focal segmental glomerulosclerosis (adriamycin); type: in vivo; conditions: for serum urea nitrogen level: model 16.08±0.23; for urine protein level: model 547.0±106.3; for glomerular lesions, renal tissue pathology (H&E, PAS, Sirius red stain): FIG. 1; for glomerular lesions, renal tissue pathology (H&E, PAS, Sirius red stain) / body weight compared with the FSGS group: control compound 25 mg/kg, irbesartan 50 mg/kg; for body weight compared with the FSGS group: gavage daily 6 weeks, compound 1-1 10, 25, 50 mg/kg
Method: The method was as follows:
Each mouse in the model group, the treatment groups and the positive control group was injected once into the tail vein with adriamycin at a dose of 8 mg/kg, and each mouse in the control group was injected once into the tail vein with saline at the same dose. The mice in the control group and model group were administered equal amount of saline by gavage for 6 weeks, and the mice in other group were administered corresponding compound in doses by gavage at a fixed time each day for 6 weeks after modelling with adriamycin. The body weights were recorded weekly and urine samples were collected.
Collection of urine samples: animals were placed in separate metabolic cages by group on days 0, 7, 14, 21, 28, 35, and 42 after modelling, with free access to water and no access to food, and urine samples were collected from each group of mice.
Determination of urine protein level using Coomassie brilliant blue (CBB) method: urine protein level was determined by urine protein quantitative test kit (Nanjing Jiancheng Bioengineering Institute). CBB working solution was prepared according to the kit instructions. 0.05 mL of each urine sample was mixed with 3 mL of CBB working solution, the mixture was allowed to stand for 5 min, and the absorbance value of each sample was determined at 595 nm. The urine protein levels samples of each group was calculated according to the protein standardization formula: urine protein level (mg/L)=(measured OD−blank OD)/(standard OD−blank OD)×563 mg/L.
Collection of serum samples: orbital blood from each mouse was collected in an EP tube, placed at 37° C. for 20 minutes, and centrifuged to obtain an upper layer of serum.
Collection of plasma samples: orbital blood from each mouse was collected in an anticoagulation tube, mixed well and stored at 4° C. for later use.
Determination of urea nitrogen level in plasma by diacetyl monoxime method: urea nitrogen level was determined by using blood urea nitrogen (BUN) test kit (Nanjing Jiancheng Bioengineering Institute). According to the kit instructions, 0.05 mL of anticoagulated plasma sample was mixed with 1 mL of oxime solution and 1 mL of acid working solution, and the mixtures were placed in a boiling water bath for 15 minutes. A UV-visible spectrophotometer was used to determine the absorbance values of each tube at a wavelength of 520 nm. Urea nitrogen levels in plasma samples of each group were calculated according to the formula: Urea nitrogen level (mmol/L)=(measured OD value−blank OD value)/(standard OD value−blank OD value)×10 mmol/L.
Collection of kidney tissue samples: kidneys were taken from mice after anesthesia, cut horizontally, and the upper part of the kidneys was embedded in OCT embedding box, sliced with frozen slicer and stored at −20° C.
H&E staining was used to assess pathological glomerular changes, and the procedure was as follows: frozen sections were fixed with 95% ethanol for 2 minutes, hydrated with distilled water, stained with hematoxylin for 3 minutes, washed with distilled water for 3 minutes, differentiated using 1% hydrochloric acid in ethanol for 10 seconds, washed with distilled water for 30 seconds, returned to blue in running water for 5 minutes, washed in distilled water for 30 seconds, stained with eosin for 30 seconds, washed with 75% and 85% ethanol for 20 seconds each, dehydrated rapidly with 95% ethanol for 1 minute, dehydrated with anhydrous ethanol, cleared to transparency in xylene (1 minute×3), and finally sealed with neutral balsam and photographed with a biomicroscope.

For `Cn1c(C(=O)NCCC(=O)O)cc2ccccc21` [3-[(1-methyl-1H-indole-2-carbonyl)amino]propionic acid, reference compound], the LVFS ([1]; medium-dose 25 mg/kg gavage) was 22.9±4.0%, the LVEF ([1]; medium-dose 25 mg/kg gavage) was 53.2±3.8% and the lung coefficient ([1]; medium-dose 25 mg/kg) was 5.48%±0.15%. For the same molecule, the “serum urea nitrogen level reduced compared with the model group” value (from here on “serum urea nitrogen level reduced”) ([2]; 25 mg/kg gavage, 6 weeks) was 20.3%, the “urine protein level reduced compared with the model group” value (from here on “urine protein level reduced”) ([2]; 25 mg/kg gavage, 6 weeks) was 22.6% and the “serum urea nitrogen level” value ([2]; 25 mg/kg gavage, 6 weeks) was 12.82 ± 0.46 mmol/L. For the same molecule, the urine protein level ([2]; 25 mg/kg gavage, 6 weeks) was 423 ± 64.7 mg/L, the “glomerular lesions, renal tissue pathology (H&E, PAS, Sirius red stain)” value [2] was “glomerular mesangial matrix hyperplasia is reduced compared with the model group, but increased compared with the treatment groups of compound 1-1” and the “body weight compared with the FSGS group” value [2] was “increased body weights”.

In the case of `CC(=O)OCCCNC(=O)c1c(C=O)c2ccccc2n1C` [compound 1-1, propyl 3-[(3-formyl-1-methyl-1H-indole-2-carbonyl)amino]acetate], the LVFS ([1]; high-dose 50 mg/kg gavage) is reported as 30.7±2.2%, the LVEF ([1]; high-dose 50 mg/kg gavage) is reported as 63.8±3.9% and the lung coefficient ([1]; high-dose 50 mg/kg) is reported as 4.93%±0.12%. The LVFS ([1]; medium-dose 25 mg/kg gavage) was 24.5±2.6%, the LVEF ([1]; medium-dose 25 mg/kg gavage) was 58.7±4.3% and the lung coefficient ([1]; medium-dose 25 mg/kg) was 5.16%±0.19%. The “serum urea nitrogen level vs model group” value ([2]; 10 mg/kg gavage, 6 weeks) was “significantly reduced”, the “urine protein level vs model group” value ([2]; 10 mg/kg gavage, 6 weeks) was “significantly reduced” and the “serum urea nitrogen level reduced” value ([2]; 25 mg/kg gavage, 6 weeks) was 27.2%. The “urine protein level reduced” value ([2]; 25 mg/kg gavage, 6 weeks) was 28.6%, the “serum urea nitrogen level” value ([2]; 25 mg/kg gavage, 6 weeks) was 11.7 ± 0.33 mmol/L and the urine protein level ([2]; 25 mg/kg gavage, 6 weeks) was 390 ± 74.6 mg/L. The “serum urea nitrogen level reduced” value ([2]; 50 mg/kg gavage, 6 weeks) was 29.8%, the “urine protein level reduced” value ([2]; 50 mg/kg gavage, 6 weeks) was 42.7% and the “serum urea nitrogen level” value ([2]; 50 mg/kg gavage, 6 weeks) was 11.29 ± 0.40 mmol/L. For the same molecule, the urine protein level ([2]; 50 mg/kg gavage, 6 weeks) was 313 ± 57.6 mg/L, the “glomerular lesions, renal tissue pathology (H&E, PAS, Sirius red stain)” value [2] was “significantly ameliorates glomerular lesions caused by FSGS” and the “body weight compared with the FSGS group” value [2] was “increased body weights”.
